Data reported in patent US20060037085A1, “Animal model for fetal alcohol syndrome and methods of treatment” (priority 2004, published 2006).
Where two headings read alike, the source gives them in different places.

Columns and labels:
NCAM = details: animal caps until stage 22
Description: (§1) RT-PCR Animal caps were dissected from embryos at stage 8.5 and cultured in 67% Leibovitz's L-15 medium, pH 7.5 in the presence or absence of varied concentration of alcohol until stage 22. Total RNA was extracted from cultured animal caps with Trizol reagent (Invitrogen). Primer sets and PCR conditions for NCAM and Pax6 have been described in our previous reports (Peng, Neurobiol. Dis., 2004; Peng, J. Mol. Biol., 2004). PCR products were subject to electrophoresis on TBE gel and visualized by ethidium bromide staining.
(§2) Animal cap explant assay. […] Total RNA was extracted from animal caps or whole embryos using TRIZOL reagent (Invitrogen). The total RNA was reverse transcribed using the Superscript system (Invitrogen), and the first strand cDNA of the target gene amplified by PCR.
(§3) The Xenopus animal cap is composed of pluripotent cells that can be induced to form neural, mesodermal, or epidermal tissue, and is a useful tissue to assess the activity of various factors on neural development. Animal caps were treated with varied concentrations of alcohol as indicated.

Pax6 = details: animal caps until stage 22
Description: as §1, §2, §3

[1] = system: Pax6, Otx2, Sox2, Sox3, NCAM, Vent1; assay: RT-PCR of neural markers (animal caps or embryos); type: cell-based, Xenopus laevis; details: animal caps
Description: as §1, §2, §3

CCO [Ethanol, ethanol]
reduction of NCAM expression (NCAM; 0.1% alcohol): 15% | reduction of NCAM expression (NCAM; 0.2% alcohol): 25% | reduction of NCAM expression (NCAM; 0.3% alcohol): 50% | reduction of NCAM expression (NCAM; 0.4% alcohol): 70% | suppression of Pax6 expression (Pax6; 0.1% alcohol): 25% | suppression of Pax6 expression (Pax6; 0.2% alcohol): 50% | suppression of Pax6 expression (Pax6; 0.3% (65 mM) alcohol): 90% | Otx2, Sox2, and Sox3 expression ([1]; alcohol 0.1% to 0.6%): less sensitive to alcohol | expression of the general ventral marker Vent1 ([1]; alcohol): not seriously affected
